Results reported in ChEMBL document CHEMBL1143275, “Positive allosteric modulators of the metabotropic glutamate receptor subtype 4 (mGluR4). Part II: Challenges in hit-to-lead” (Bioorg Med Chem Lett, 2009).
Activity calls are given as the source filed them. The rule behind the calls is not given here.

How the values were obtained:
[1] = target: T1, Metabotropic glutamate receptor 4 (Homo sapiens, UniProt Q14833); assay: Activation of human mGluR4 expressed in CHO cells coexpressing Gqi5 protein assessed as potentiation of glutamate-induced response relative to glutamate alone; assay type: cell-based; parameters: concentration or dose not given beside the values
T1 sequence (Q14833 whole entry): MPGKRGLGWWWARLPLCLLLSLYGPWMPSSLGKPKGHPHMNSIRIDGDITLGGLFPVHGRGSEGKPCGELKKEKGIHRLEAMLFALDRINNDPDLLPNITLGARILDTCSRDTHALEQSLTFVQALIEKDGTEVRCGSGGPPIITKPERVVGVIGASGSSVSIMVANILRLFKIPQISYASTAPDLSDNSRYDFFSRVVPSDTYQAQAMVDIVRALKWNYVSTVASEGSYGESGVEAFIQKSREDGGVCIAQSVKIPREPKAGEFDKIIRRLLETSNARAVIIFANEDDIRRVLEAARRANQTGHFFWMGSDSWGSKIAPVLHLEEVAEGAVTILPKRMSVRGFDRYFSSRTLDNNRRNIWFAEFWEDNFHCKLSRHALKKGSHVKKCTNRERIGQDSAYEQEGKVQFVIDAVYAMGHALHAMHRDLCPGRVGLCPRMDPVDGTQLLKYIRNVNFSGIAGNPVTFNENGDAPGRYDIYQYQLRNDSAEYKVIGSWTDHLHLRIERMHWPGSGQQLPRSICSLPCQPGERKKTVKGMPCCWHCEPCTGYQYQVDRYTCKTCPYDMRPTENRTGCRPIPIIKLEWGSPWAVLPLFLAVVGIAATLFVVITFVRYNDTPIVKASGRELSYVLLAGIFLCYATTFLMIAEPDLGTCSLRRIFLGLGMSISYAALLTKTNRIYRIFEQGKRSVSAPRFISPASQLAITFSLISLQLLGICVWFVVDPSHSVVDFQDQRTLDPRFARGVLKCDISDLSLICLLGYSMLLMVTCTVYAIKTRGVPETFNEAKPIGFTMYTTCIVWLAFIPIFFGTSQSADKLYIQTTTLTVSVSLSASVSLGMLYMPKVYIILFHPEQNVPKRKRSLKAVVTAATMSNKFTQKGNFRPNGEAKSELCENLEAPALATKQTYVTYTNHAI

[2] = target: T1, Metabotropic glutamate receptor 4; assay: Activation of human mGluR4 expressed in CHO cells coexpressing Gqi5 protein assessed as potentiation of glutamate-induced response; assay type: cell-based
[3] = target: T1, Metabotropic glutamate receptor 4; assay: Activation of human mGluR4 expressed in CHO cells coexpressing Gqi5 protein in absence of glutamate; assay type: cell-based
[4] = target: T1, Metabotropic glutamate receptor 4; assay: Activation of human mGluR4 expressed in CHO cells coexpressing Gqi5 protein assessed as fold shifting of glutamate-induced response at 30 uM; assay type: cell-based
[5] = target: Metabotropic glutamate receptor 8 (Homo sapiens) (UniProt O00222); assay: Antagonist activity at mGluR8 assessed as effect on glutamate-induced response; assay type: functional
Chain of Metabotropic glutamate receptor 8 (Homo sapiens) (O00222 whole entry): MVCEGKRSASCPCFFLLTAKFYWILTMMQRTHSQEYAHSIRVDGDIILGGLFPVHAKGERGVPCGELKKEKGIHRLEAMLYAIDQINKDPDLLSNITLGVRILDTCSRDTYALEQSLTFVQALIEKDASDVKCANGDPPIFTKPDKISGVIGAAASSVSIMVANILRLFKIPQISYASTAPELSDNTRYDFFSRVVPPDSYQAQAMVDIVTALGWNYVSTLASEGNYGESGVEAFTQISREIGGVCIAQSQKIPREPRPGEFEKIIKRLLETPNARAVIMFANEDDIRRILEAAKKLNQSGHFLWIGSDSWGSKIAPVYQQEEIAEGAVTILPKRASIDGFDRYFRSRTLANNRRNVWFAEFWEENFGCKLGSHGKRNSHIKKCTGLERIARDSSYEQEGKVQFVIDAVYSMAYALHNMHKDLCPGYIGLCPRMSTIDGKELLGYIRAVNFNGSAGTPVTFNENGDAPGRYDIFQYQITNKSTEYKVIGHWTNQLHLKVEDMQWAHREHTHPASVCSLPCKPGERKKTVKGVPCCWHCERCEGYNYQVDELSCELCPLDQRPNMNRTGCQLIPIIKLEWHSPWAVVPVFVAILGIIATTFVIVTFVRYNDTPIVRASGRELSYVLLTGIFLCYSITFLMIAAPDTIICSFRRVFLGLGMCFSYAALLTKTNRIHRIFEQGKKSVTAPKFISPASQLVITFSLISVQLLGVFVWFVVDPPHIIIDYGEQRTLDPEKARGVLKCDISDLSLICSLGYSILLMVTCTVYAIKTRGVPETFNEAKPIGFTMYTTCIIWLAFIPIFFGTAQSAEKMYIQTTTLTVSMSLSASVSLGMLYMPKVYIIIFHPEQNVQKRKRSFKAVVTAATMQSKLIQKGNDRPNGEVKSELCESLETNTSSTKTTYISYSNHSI

[6] = target: Metabotropic glutamate receptor 7 (Homo sapiens) (UniProt Q14831); assay: Antagonist activity at mGluR7 assessed as effect on glutamate-induced response; assay type: functional
[7] = target: Metabotropic glutamate receptor 5 (Homo sapiens) (UniProt P41594); assay: Antagonist activity at mGluR5 assessed as effect on glutamate-induced response; assay type: functional
Chain of Metabotropic glutamate receptor 5 (Homo sapiens) (P41594 21-1212 limits assumed): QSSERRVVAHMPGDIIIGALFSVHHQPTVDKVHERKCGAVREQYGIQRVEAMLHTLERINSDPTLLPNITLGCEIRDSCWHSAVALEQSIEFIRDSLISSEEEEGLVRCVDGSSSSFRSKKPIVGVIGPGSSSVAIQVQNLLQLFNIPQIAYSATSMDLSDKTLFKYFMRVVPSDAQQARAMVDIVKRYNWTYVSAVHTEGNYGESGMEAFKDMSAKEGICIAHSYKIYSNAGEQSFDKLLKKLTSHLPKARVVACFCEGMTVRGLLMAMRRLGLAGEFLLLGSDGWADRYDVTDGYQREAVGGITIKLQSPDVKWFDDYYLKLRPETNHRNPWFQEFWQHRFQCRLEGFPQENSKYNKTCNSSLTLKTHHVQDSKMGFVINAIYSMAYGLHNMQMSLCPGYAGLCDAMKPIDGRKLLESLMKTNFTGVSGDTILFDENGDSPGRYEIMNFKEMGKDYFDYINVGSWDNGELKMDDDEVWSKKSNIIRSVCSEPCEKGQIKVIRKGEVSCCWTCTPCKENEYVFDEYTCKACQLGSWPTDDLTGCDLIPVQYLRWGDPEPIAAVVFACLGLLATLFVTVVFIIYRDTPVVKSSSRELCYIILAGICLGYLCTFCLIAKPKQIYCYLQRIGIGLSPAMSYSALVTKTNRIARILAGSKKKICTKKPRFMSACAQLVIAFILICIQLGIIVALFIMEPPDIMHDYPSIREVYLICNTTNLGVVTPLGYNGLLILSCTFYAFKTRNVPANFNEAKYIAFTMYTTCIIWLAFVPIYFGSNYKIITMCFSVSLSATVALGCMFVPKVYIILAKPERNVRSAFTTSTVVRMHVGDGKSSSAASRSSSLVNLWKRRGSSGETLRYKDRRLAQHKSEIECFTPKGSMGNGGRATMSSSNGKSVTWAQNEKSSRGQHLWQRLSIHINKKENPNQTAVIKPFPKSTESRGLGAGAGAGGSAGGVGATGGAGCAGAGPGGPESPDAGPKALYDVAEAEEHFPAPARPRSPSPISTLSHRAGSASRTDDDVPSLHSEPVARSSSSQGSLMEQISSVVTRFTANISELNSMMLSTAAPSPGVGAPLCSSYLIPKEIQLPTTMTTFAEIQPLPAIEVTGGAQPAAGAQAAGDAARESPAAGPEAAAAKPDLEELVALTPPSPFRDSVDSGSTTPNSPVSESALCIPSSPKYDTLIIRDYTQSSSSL

[8] = target: Metabotropic glutamate receptor 2 (Homo sapiens) (UniProt Q14416); assay: Antagonist activity at mGluR2 assessed as effect on glutamate-induced response; assay type: functional
Chain of Metabotropic glutamate receptor 2 (Homo sapiens) (Q14416 19-872 limits assumed): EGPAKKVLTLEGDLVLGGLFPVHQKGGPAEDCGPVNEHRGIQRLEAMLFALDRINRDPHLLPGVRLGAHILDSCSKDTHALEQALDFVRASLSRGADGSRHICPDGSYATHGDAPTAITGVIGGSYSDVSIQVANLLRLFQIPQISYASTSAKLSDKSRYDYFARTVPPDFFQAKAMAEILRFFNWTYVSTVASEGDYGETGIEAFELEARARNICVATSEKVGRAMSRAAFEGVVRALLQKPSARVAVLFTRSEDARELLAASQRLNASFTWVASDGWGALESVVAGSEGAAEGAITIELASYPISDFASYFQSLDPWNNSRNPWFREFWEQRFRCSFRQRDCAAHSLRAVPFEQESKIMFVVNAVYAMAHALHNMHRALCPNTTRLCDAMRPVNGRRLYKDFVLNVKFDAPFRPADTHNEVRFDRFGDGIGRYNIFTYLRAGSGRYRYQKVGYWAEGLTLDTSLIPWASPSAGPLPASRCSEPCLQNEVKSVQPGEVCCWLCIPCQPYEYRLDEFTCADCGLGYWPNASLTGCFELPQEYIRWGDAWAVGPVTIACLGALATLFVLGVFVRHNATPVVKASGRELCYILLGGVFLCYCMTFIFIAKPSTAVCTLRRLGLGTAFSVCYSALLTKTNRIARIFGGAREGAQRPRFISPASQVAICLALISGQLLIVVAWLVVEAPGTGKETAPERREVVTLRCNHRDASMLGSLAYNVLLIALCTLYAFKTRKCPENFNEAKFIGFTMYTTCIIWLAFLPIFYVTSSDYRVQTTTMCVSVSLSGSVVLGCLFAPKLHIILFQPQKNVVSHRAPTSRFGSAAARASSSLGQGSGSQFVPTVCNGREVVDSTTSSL

[9] = target: Metabotropic glutamate receptor 1 (Homo sapiens) (UniProt Q13255); assay: Antagonist activity at mGluR1 assessed as effect on glutamate-induced response; assay type: functional; parameters: scale not given: the % may be the effect or the level left
Chain of Metabotropic glutamate receptor 1 (Homo sapiens) (Q13255 19-1194 limits assumed): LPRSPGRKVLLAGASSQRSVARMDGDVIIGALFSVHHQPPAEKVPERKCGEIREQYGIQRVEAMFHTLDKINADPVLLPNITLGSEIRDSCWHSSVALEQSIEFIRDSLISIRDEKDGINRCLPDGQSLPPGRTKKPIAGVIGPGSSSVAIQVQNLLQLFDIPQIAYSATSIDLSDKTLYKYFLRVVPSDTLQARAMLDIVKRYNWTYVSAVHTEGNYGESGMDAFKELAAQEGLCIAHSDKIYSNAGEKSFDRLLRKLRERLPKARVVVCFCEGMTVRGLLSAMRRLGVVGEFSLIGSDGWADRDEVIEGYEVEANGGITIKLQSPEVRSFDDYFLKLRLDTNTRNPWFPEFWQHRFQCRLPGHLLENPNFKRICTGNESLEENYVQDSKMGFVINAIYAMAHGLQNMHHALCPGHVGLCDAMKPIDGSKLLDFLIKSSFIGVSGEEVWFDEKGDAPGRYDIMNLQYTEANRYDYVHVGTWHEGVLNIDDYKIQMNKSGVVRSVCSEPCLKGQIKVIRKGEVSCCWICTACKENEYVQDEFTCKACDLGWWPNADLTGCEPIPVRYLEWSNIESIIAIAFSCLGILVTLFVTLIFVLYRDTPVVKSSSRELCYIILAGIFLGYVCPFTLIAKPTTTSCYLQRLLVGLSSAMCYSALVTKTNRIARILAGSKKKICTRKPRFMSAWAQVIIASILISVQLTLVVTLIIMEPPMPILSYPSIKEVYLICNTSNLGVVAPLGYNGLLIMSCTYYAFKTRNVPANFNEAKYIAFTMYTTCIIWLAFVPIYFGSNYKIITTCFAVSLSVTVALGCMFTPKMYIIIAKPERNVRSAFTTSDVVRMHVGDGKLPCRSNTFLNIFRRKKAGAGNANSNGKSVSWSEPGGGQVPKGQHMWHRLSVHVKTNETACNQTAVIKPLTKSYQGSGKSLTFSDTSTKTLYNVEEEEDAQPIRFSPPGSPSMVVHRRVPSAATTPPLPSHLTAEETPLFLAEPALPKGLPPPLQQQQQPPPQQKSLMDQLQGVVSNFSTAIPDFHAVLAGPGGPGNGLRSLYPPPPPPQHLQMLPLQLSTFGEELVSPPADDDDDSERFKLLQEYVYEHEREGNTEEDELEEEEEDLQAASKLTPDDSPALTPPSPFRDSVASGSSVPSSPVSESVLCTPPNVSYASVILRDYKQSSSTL

COC(=O)c1ccc(N2C(=O)c3ccccc3NC2C(C)c2ccccc2)cc1 (stereo not given)
Activity [1]: 69% | EC50 [2]: > 10 µM

Cc1nc2ccccc2nc1N/N=C/c1ccc(F)cc1
Activity [1]: 87% | EC50 [2]: > 5 µM

CC(c1ccccc1)C1Nc2ccccc2C(=O)N1c1cccc(F)c1 (stereo not given)
Activity [1]: 87% | EC50 [2]: > 10 µM

Cc1nc2ccccc2nc1N/N=C/c1ccccc1O
Activity [1]: 57% | EC50 [2]: 4.1 µM

COc1ccccc1/C=N/Nc1nc2ccccc2nc1C
Activity [2]: inactive

Cc1nc2ccccc2nc1N/N=C/c1ccc(O)cc1
Activity [3]: inactive | fold change (FC) [4]: 36 | Activity [1]: 144% | Activity [5]: inactive | Activity [6]: inactive | Activity [7]: inactive | Activity [8]: inactive | Activity [9]: inactive | EC50 [2]: 1.7 µM

Cc1ccc(N2C(=O)c3ccccc3NC2C(C)c2ccccc2)cc1 (stereo not given)
Activity [1]: 129% | EC50 [2]: 3 µM

Cc1nc2ccccc2nc1N/N=C/c1cccc(O)c1
Activity [1]: 136% | EC50 [2]: 2.4 µM

O=C(Nc1ccccc1)[C@]12C[C@H]1/C(=N\O)c1ccccc1O2
Activity [9]: 30%

Cc1nc2ccccc2nc1N/N=C/c1ccccc1
Activity [1]: 129% | EC50 [2]: 4.4 µM
